Format in all cases: biochemical
One test concerns the target T1, IDH1 mutant (R132H) (Homo sapiens, UniProt O75874, R132H).
T1 construct: purchased BPS Bioscience 71099-2
Briefly: Mutant IDH1-R132H Fluorescence Assay (Resazurin based). As to conditions: 10 nM IDH1 R132H, 4 mM α-ketoglutarate, NADPH, 1.5 h at room temperature. The method in brief:
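Recombinant IDH1 R132H (10 nM) was run with α-ketoglutarate (4 mM) and NADPH ([…]) for 1.5 h at room temperature in Tris pH buffer with MgCl2, BSA and mercaptoethanol. Remaining NADPH was detected via diaphorase/resazurin fluorescence (ex 540/em 590 nm). IC50 came from a 4-parameter logistic fit.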

The target in the next test is T2, IDH2 mutant (R140Q) (Homo sapiens, UniProt P48735, R140Q).
T2 construct: purchased BPS Bioscience 71100-2
T2 sequence (P48735 40-452 R140Q): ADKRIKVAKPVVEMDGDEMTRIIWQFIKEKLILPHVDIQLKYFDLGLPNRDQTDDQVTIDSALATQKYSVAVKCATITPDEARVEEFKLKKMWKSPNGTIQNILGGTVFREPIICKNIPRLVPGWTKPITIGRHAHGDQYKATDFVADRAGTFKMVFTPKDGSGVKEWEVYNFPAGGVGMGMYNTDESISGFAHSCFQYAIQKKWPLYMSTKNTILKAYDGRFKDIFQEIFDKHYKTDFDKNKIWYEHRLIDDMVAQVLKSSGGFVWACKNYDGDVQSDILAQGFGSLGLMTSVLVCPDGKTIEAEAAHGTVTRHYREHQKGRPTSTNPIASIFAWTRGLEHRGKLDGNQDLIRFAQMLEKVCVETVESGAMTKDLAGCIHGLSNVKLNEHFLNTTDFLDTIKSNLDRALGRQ
Description: Mutant IDH2-R140Q Fluorescence Assay (Resazurin based). As to conditions: 5 nM IDH2 R140Q, 4 hr pre-incubation, 1 mM α-ketoglutarate, 5 μM NADPH, 2 h. Here is the method:
IC50 values of compounds against IDH2 mutant (R140Q) were determined by Resazurin based Fluorescence assay. Assay was performed in Buffer (25 mM Tris HCl, 150 mM NaCl, 10 mM MgCl2, 0.03% BSA, 2 mM 1-mercaptoethanol) where total reaction volume was 12.5 μL in low-volume 384-well plates (Cat #4511, Corning). Serially diluted compounds (3-fold) were pre-incubated with IDH2 R140Q mutant enzyme (5 nM; Cat #71100-2, BPS Bioscience) for 4 hr at RT (25° C.) followed by addition of cocktail of α-ketoglutarate (1 mM; Cat #75892-25G, Sigma), and NADPH (5 μM; Cat # N1630-100MG, Sigma) with buffer in dark at room temperature for 2 h. After 2 h incubation, 6.25 μL detection solution containing Resazurin (30 μM; (Cat #62758-13-8, Sigma) and Diaphorase (40 ug/ml; Cat # D2197-300UN, Sigma) in buffer was added and incubated for 15 min. Readings were taken in a Synergy Neo Plate reader (BioTek, Winooski) at single excitation of 540 nm and emission at 590 nm respectively.
The % activity of test samples was calculated as (Sample−Min)×100/(Max−Min). [Max: DMSO control, complete reaction with enzyme with DMSO and Min: No enzyme with DMSO]. Percent inhibition (100−% activity) was fitted to the “four-parameter logistic model” in XLfit for determination of IC50 values.

The target in a further test is T3, IDH1-WT (Homo sapiens, UniProt O75874).
T3 construct: purchased BPS Bioscience 71075-2
Description: IDH1-WT Fluorescence Assay (Resazurin based). As to conditions: 1 nM IDH1-WT, 200 μM isocitrate, 15 μM NADP+, 30 min at room temperature. Here is the method:
IC50 values of compounds against IDH1-WT was determined by Resazurin based Fluorescence assay. Assays were performed in Buffer (50 mM Tris HCl, 10 mM MgCl2, 0.03% BSA, 2 mM ß-mercaptoethanol) where total reaction volume was 25 μL in low-volume 96-well plates. Serially diluted compounds (3-fold) in DMSO (0.5% in final reaction) were incubated with cocktail of isocitrate (200 μM; Cat # I1252-1G, Sigma), NADP^+ (15 μM; Cat # N0505-500MG, Sigma) and buffer for 5 min, following addition of IDH1-WT enzyme (1 nM; Cat #71075-2, BPS Bioscience) and incubated in dark at room temperature for 30 min. After that, 12.5 μL detection solution containing Resazurin (60 μM; Cat #62758-13-8, Sigma) and Diaphorase (40 μg/ml; Cat # D2197-300UN, Sigma) in buffer was added and incubated for 15 min. Readings were taken using a Synergy Neo Plate reader (BioTek, Winooski) at single excitation of 540 nm and emission at 590 nm respectively.
The % (percent) activity of test samples was calculated as (Sample−Min)×100/(Max−Min). [Max: DMSO control, complete reaction with enzyme with DMSO and Min: No enzyme with DMSO]. Percent inhibition (100−% activity) was fitted to the “four-parameter logistic model” in XLfit for determination of IC50 values.
For orientation: Resazurin is reduced to fluorescent resorufin, in cell work by metabolically active cells.

Experimental findings from patent US20200206233A1 (INTEGRAL BIOSCIENCES PRIVATE LIMITED, priority 2018, published 2020) are described below.

The term IC50 denotes the concentration that gives 50% inhibition.

T3 sequence (O75874 whole entry): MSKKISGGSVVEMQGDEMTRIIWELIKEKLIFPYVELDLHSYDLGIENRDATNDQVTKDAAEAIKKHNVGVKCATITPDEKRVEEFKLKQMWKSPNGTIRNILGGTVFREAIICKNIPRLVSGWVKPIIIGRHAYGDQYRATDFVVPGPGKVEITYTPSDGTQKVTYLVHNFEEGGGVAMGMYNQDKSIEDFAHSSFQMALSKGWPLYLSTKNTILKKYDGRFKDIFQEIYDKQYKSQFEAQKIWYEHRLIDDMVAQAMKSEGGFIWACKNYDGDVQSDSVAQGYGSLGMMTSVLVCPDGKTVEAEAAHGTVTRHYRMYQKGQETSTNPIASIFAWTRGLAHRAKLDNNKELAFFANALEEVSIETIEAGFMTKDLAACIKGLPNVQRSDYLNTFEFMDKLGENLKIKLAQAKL
T1 sequence (O75874 whole entry R132H): as the sequence (O75874 whole entry) above, with R132H counted along it

Consider `CC[C@H]1COC(=O)N1c1nc(C)nc(N[C@@H](C)c2ccc(Oc3ccccc3)c(F)c2)n1` [Compound 1.84, (S)-4-ethyl-3-(4-((S)-1-(3-fluoro-4-phenoxyphenyl)ethylamino)-6-methyl-1,3,5-triazin-2-yl)oxazolidin-2-one], for which the concentration for half-maximal inhibition (IC50) was 0.615 µM at IDH1 mutant (R132H), over 50 µM on IDH2 mutant (R140Q) and over 50 µM on IDH1-WT.
With `CC(C)[C@H]1COC(=O)N1c1ncnc(N[C@@H](C)c2cn(-c3ccc(Cl)cc3)cn2)n1` [Compound 1.13, (S)-3-(4-((S)-1-(1-(4-chlorophenyl)-1H-imidazol-4-yl)ethylamino)-1,3,5-triazin-2-yl)-4-isopropyloxazolidin-2-one], the IC50 on IDH1 mutant (R132H) was 0.77 µM; on IDH2 mutant (R140Q), over 50 µM; at IDH1-WT, over 30 µM.
For `CC(C)[C@H]1COC(=O)N1c1ncnc(N[C@@H](C)c2ccccc2)n1` [Compound 1.37, (S)-4-isopropyl-3-(4-((S)-1-phenylethylamino)-1,3,5-triazin-2-yl)oxazolidin-2-one], in that order: 19.4 µM, over 50 µM and over 50 µM.
For the compound `Cc1nc(N[C@@H](C)c2ccc(Oc3ccccc3)cc2)nc(N2C(=O)OC[C@@H]2C(C)C)n1` [Compound 1.27, (S)-4-isopropyl-3-(4-methyl-6-((S)-1-(4-phenoxyphenyl)ethylamino)-1,3,5-triazin-2-yl)oxazolidin-2-one], the IC50 at IDH1 mutant (R132H) is 0.396 µM; on IDH2 mutant (R140Q), over 50 µM; at IDH1-WT, over 50 µM.
As for `CC[C@H]1COC(=O)N1c1nc(C)nc(N[C@@H](C)c2cc3cc(Br)ccc3[nH]c2=O)n1` [Compound 1.66, (S)-3-(4-((S)-1-(6-bromo-2-oxo-1,2-dihydroquinolin-3-yl)ethylamino)-6-methyl-1,3,5-triazin-2-yl)-4-ethyloxazolidin-2-one], the IC50 on IDH1 mutant (R132H) was 0.328 µM; at IDH2 mutant (R140Q), over 50 µM; at IDH1-WT, over 50 µM.
As for `CC[C@H]1COC(=O)N1c1nc(C)nc(N[C@@H](C)c2ccc(Oc3ccc(F)cc3)cc2)n1` [Compound 1.58, (S)-4-ethyl-3-(4-((S)-1-(4-(4-fluorophenoxy)phenyl)ethylamino)-6-methyl-1,3,5-triazin-2-yl)oxazolidin-2-one], the IC50 at IDH1 mutant (R132H) was 0.308 µM; on IDH2 mutant (R140Q) it was over 50 µM; at IDH1-WT, over 50 µM.
As to `CC(C)[C@H]1COC(=O)N1c1ncnc(N[C@@H](C)c2ccc(Oc3ccccc3)cc2)n1` [Compound 1.9, (S)-4-isopropyl-3-(4-((S)-1-(4-phenoxyphenyl)ethylamino)-1,3,5-triazin-2-yl)oxazolidin-2-one], the IC50 at IDH1 mutant (R132H) is 0.642 µM; at IDH2 mutant (R140Q), over 50 µM; on IDH1-WT, over 30 µM.
Take `CC(C)[C@H]1COC(=O)N1c1ncnc(N[C@@H](C)c2cn(-c3ccc(C(F)(F)F)cc3)cn2)n1` [Compound 1.5, (S)-4-isopropyl-3-(4-((S)-1-(1-(4-(trifluoromethyl)phenyl)-1H-imidazol-4-yl)ethylamino)-1,3,5-triazin-2-yl)oxazolidin-2-one]: the results for the 50% inhibitory concentration (IC50) on IDH1 mutant (R132H), on IDH2 mutant (R140Q) and on IDH1-WT were 0.575 µM, over 50 µM and over 30 µM, respectively.
For `CC(C)[C@H]1COC(=O)N1c1ncnc(N[C@@H](C)c2ccc(Cl)c(Cl)c2)n1` [Compound 1.7, (S)-3-(4-((S)-1-(3,4-dichlorophenyl)ethylamino)-1,3,5-triazin-2-yl)-4-isopropyloxazolidin-2-one], in that order: 2.87 µM, over 50 µM and over 30 µM.
With `CC[C@H]1COC(=O)N1c1nc(C)nc(N[C@H](C)c2cc3cc(Cl)c(OC(C)C)cc3[nH]c2=O)n1` [Compound 1.105, (S)-3-(4-((R)-1-(6-chloro-7-isopropoxy-2-oxo-1,2-dihydroquinolin-3-yl)ethylamino)-6-methyl-1,3,5-triazin-2-yl)-4-ethyloxazolidin-2-one], the IC50 on IDH1 mutant (R132H) is 0.66 µM; on IDH2 mutant (R140Q), over 50 µM; at IDH1-WT it was over 50 µM.
